Patent US8207136B2, “Nucleoside compounds and methods of use thereof” (The Board of Trustees of the University of Illinois, priority 2005, dated 2012)

Key:
p53 = assay: Gel shift assay with nuclear extracts and p53 consensus probe; type: cell-based, human
Description: Either purified p53 protein or nuclear extracts were used in the gel shift assays. For preparation of nuclear extracts, cells treated either with DMSO or different agents (doxorubicin, ARC and actinomycin D) were harvested 24 hours later and lysed in hypotonic buffer (10 mM HEPES pH 7.9, 1.5 mM MgCl2, 10 mM KCl, 0.2 mM PMSF, 0.5 mM DTT, 1 mM Na3VO4, 1 mM NaF, 1 mM Aprotinin and 1 mM Leupeptin), nuclei pelleted and treated with high-salt buffer (20 mM HEPES pH 7.9, 20% (v/v) glycerol, 1.5 mM MgCl2, 0.5 M KCl, 0.2 mM EDTA, 0.2 mM PMSF, 0.5 mM DTT, 1 mM Na3VO4, 1 mM NaF, 1 mM Aprotinin and 1 mM Leupeptin). Nuclear extracts (10 μg) or purified p53 protein (100 ng) were incubated with 0.5 ng of p53 consensus double-stranded oligos (5′-TACAGAACATGTCTAAGCATGCTGGGGACT-3′; Santa Cruz Biotechnology) that were labeled with [γ^32P]ATP. As a control, anti-p53 antibody (PAb421, EMD Biosciences) was used to supershift the p53/DNA complex. The reaction mixtures were resolved on a 4% acrylamide DNA-retardation gel, dried and exposed to X-ray film in the presence of intensifying screen.
Although the effects of ARC were p53-independent, ARC did affect some properties of p53. […] This is in contrast to actinomycin D, which is known to enhance the DNA binding ability of p53 [22]. […] To determine if ARC retains p53 in the cytoplasm, which may lead to decreased binding in the gel shift assays, p53 levels in nuclear lysates were examined.

[1] = Preliminary toxicity studies (NCI/DTP) in mice; type: in vivo; details: as high as 200 mg/Kg, 5-day period, B6D2FI mice
Source text: Similarly, p21 may also act in an anti-apoptotic fashion by inducing cell-cycle arrest or by inhibiting pro-apoptotic molecules such as procaspase-3 and apoptosis signal-regulating kinasel (ASK1). […] The fact that ARC represses both survivin and p21 makes a strong case for consideration of ARC as a potential anti-tumor agent. This is further supported by the observation that ARC was >10-fold more efficient in inducing apoptosis than the other nucleoside analog DRB (FIG. 5F). This is especially intriguing because, as shown herein, ARC and DRB repress global transcription to similar extent (FIG. 2A). […] Preliminary toxicity studies from NCI/DTP indicate that concentrations as high as 200 mg/Kg were non-toxic to B6D2FI mice during a 5-day period.

[2] = tested on: wild type MRC-5 human fetal lung fibroblasts; assay: Apoptosis and cell cycle assays in wild type MRC-5 fibroblasts; type: cell-based; details: for cell cycle profile: 20 μM
Description: Immunoblotting was performed as described with antibodies specific for p53 (sc-126 HRP; Santa Cruz), hdm2 (sc-965; Santa Cruz), p21 (556431; BD Pharmingen), Sp1 (sc-59; Santa Cruz), survivin (sc-10811; Santa Cruz), phospho RNA polymerase II (4735; Cell Signaling), total RNA polymerase II (8WG16; a gift from Dr. Schlegel, University of Illinois at Chicago), α-tubulin (T9026; Sigma), cleaved caspase-3 (9664; Cell Signaling), caspase-9 (9502; Cell Signaling) and β-actin (A5441; Sigma) antibodies.
Apoptosis was detected either by DAPI (4′,6-diamidino-2-phenylindole) staining or by Flow Cytometry after PI (Propidium Iodide) staining. For DAPI staining, all treatments (DMSO or ARC) were done in triplicates in 6-well plates and cells were stained with DAPI and visualized by fluorescent microscopy. Four random fields for each sample were photographed and at least 500 cells per field were counted to estimate apoptosis. The data is represented as mean±Standard deviation (sd).
For Flow Cytometry, cells were fixed in 70% ethanol and stored at −20° C. until further analysis. Equal numbers of fixed cells were then stained with PI solution (0.1% Triton X-100, 0.2 mg/ml DNase free RNase, 0.02 mg/ml propidium iodide) made in PBS for 15 min at 37° C. and analyzed by a flow cytometer.
The ability of ARC to induce apoptosis in wild type and SV40-transformed MRC-5 human fetal lung fibroblasts was evaluated. Twenty-four hours after treatment with ARC, transformed fibroblasts underwent robust apoptosis (around 50% and 70%, respectively, with 5 and 10 μM of ARC) (FIGS. 4A and B). […] The transformed cell types may be more dependent on the survivin levels for their survival than their wild type counterparts and thus the reduction in these levels could be lethal to these cells.
Moreover, the effect of 20 μM ARC treatment on wild type fibroblasts was analyzed and little change was found in the cell cycle profile after 24 hours (data not shown) and the cells undergo G2-arrest after 48 hours (FIG. 4D).

Mcl-1, Bcl-2 = assay: Immunoblot of Bcl-2 and Mcl-1 levels; type: cell-based
Description: FIG. 8. ARC downregulates Mcl-1 levels in different cancer cells. (A) U937 leukemia cells were treated with different concentrations of ARC as indicated for 24 hours and the cell lysates were probed for Mcl-1 levels. (B) Neuroblastoma cell lines were treated either with DMSO or 1 μM ARC for 24 hours and levels of Mcl-1 were assessed by immunoblotting.
In order to further probe the mechanism of ARC-induced apoptosis, whether or not ARC causes mitochondrial injury was investigated. Permeabilization of mitochondria, followed by cytochrome c release has previously been observed for transcriptional inhibitor flavopiridol. For this analysis, leukemia cell lines CEM, HL-60, NB4 and U937 were treated with either DMSO or ARC. […] It is well known that the Bcl2 family members (eg., Bcl-2, Bcl-XL, Mcl-1) protect the mitochondrial integrity, thereby acting in an anti-apoptotic manner. It is possible that ARC modulates the expression of one or more of these proteins to cause mitochondrial injury.

HUVECs = assay: Motility assay with VEGF as chemoattractant; type: cell-based; details: Homo sapiens, HUVEC; 24 hours pretreatment, average from two trials; read-out: IC50, cell motility
Description: Different angiogenesis assays such as cord formation assay, motility assay and proliferation inhibition assay were performed at the developmental therapeutics program (DTP) branch of NCI (NCI/DTP) as described. HUVECs were used for all the assays. Taxol and TNP-470 were used as positive control for the assays.
For motility assay, HUVECs were pretreated for 24 hours with different concentrations ARC and used in the assay with vascular endothelial growth factor (VEGF) as a chemoattractant.

Structure (SMILES): NNc1c(C(N)=O)c2c(N)ncnc2n1[C@@H]1O[C@H](CO)[C@@H](O)[C@H]1O [ARC, 4-amino-6-hydrazino-7-beta-D-ribofuranosyl-7H-pyrrolo[2,3-d]-pyrimidine-5-carboxamide]
- DNA binding ability of p53, agent alone (p53; MCF-7 nuclear extracts): did not influence the DNA binding ability of p53
- doxorubicin-induced DNA binding ability of p53 (p53; nuclear extracts from HCT-116 and MCF-7 cells, with doxorubicin): inhibited the doxorubicin-induced DNA binding ability of p53
- toxicity [1]: non-toxic
- cell cycle profile ([2]; 24 hours): little change
- cell cycle profile ([2]; 48 hours): G2-arrest
- cell killing ([2]; 10 or 20 μM, 24 hours): not susceptible to ARC-mediated cell killing
- Mcl-1 levels (Mcl-1, Bcl-2; U937 leukemia and neuroblastoma cell lines, 24 hours): drastically reduced
- Bcl-2 levels (Mcl-1, Bcl-2; data not shown): no changes in the levels of Bcl-2
- IC50 (HUVECs): ~830 nM
